Biological target: T1, airway epithelial sodium currents (sodium channel) in canine bronchial epithelia (Canis lupus familiaris, UniProt A0A8I3MKE6+A0A8I3Q679+Q95165)
T1 construct: endogenous in cells; host or cells: primary canine bronchial epithelial cells from freshly excised airways, cultured at air-liquid interface on Snapwell inserts
Assay: In vitro sodium channel blocking activity (short circuit current, Ussing chambers) in canine bronchial epithelia
Assay type: cell-based
Conditions: potency in canine bronchial epithelia; for Fold Amiloride*: relative to amiloride (Formula III compounds), value ± spread
Procedure: One assay used to assess mechanism of action and/or potency of the compounds of (1), (II), and (HI) involves the determination of lumenal drug inhibition of airway epithelial sodium currents measured under short circuit current (ISC) using airway epithelial monolayers mounted in Ussing chambers. Cells obtained from freshly excised human, dog, sheep or rodent airways are seeded onto porous 0.4 micron Snapwell™ Inserts (CoStar), cultured at air-liquid interface (ALI) conditions in hormonally defined media, and assayed for sodium transport activity (ISC) while bathed in Krebs Bicarbonate Ringer (KBR) in Using chambers. All test drug additions are to the lumenal bath with half-log dose addition protocols (from 1×10^−11 M to 3×10^−5 M), and the cumulative change in ISC (inhibition) recorded. All drugs are prepared in dimethyl sulfoxide as stock solutions at a concentration of 1×10^−2 M and stored at −20° C. Eight preparations are typically run in parallel; two preparations per run incorporate amiloride and/or benzamil as positive controls. After the maximal concentration (5×10^−5 M) is administered, the lumenal bath is exchanged three times with fresh drug-free KBR solution, and the resultant ISC measured after each wash for approximately 5 minutes in duration. Reversibility is defined as the percent return to the baseline value for sodium current after the third wash. All data from the voltage clamps are collected via a computer interface and analyzed off-line.
Dose-effect relationships for all compounds are considered and analyzed by the Prism 3.0 program. IC50 values, maximal effective concentrations, and reversibility are calculated and compared to amiloride and benzamil as positive controls.
Amiloride and/or a compound 33 was also tested in this assay as a positive control. The results for the compounds of the present invention are reported as fold-enhancement values relative to amiloride.
Amiloride was also tested in this assay as a positive control. The results for the compounds of the present invention are reported as fold-enhancement values relative to amiloride.

T1 sequence (A0A8I3Q679 entry or part of it): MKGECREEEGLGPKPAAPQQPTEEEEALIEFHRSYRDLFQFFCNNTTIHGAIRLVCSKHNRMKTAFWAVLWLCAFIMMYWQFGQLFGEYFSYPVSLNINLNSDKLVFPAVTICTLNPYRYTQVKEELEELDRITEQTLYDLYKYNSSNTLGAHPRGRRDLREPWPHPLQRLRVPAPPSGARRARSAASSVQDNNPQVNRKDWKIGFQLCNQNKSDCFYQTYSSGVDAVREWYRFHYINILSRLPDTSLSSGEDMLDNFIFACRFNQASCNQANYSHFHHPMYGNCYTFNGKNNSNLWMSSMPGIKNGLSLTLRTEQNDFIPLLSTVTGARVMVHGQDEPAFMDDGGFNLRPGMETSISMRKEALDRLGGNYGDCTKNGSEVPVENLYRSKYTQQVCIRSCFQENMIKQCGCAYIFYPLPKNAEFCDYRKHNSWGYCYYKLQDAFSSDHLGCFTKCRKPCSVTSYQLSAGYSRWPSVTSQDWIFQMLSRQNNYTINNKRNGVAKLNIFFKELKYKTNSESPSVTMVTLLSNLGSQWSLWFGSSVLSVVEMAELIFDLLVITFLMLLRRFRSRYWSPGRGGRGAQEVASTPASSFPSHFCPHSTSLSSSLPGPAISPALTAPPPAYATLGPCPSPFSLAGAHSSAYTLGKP
T1 sequence (A0A8I3MKE6 entry or part of it): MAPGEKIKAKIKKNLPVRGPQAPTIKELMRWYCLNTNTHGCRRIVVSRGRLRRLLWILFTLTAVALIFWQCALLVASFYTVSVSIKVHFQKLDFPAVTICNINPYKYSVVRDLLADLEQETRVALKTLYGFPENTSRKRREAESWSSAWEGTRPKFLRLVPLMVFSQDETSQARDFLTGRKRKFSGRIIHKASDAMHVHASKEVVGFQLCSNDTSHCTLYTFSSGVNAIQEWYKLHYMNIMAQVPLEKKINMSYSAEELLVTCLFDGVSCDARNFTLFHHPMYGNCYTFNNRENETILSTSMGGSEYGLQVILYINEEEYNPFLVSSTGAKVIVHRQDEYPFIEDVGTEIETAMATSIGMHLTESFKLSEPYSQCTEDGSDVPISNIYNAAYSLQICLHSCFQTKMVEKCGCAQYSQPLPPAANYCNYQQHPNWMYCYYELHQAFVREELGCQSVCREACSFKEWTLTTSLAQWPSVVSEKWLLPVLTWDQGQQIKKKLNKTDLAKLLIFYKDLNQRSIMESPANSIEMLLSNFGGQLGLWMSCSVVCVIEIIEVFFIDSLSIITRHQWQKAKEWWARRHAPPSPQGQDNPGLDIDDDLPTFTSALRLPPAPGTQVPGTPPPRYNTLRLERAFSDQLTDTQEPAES
T1 sequence (Q95165 whole entry): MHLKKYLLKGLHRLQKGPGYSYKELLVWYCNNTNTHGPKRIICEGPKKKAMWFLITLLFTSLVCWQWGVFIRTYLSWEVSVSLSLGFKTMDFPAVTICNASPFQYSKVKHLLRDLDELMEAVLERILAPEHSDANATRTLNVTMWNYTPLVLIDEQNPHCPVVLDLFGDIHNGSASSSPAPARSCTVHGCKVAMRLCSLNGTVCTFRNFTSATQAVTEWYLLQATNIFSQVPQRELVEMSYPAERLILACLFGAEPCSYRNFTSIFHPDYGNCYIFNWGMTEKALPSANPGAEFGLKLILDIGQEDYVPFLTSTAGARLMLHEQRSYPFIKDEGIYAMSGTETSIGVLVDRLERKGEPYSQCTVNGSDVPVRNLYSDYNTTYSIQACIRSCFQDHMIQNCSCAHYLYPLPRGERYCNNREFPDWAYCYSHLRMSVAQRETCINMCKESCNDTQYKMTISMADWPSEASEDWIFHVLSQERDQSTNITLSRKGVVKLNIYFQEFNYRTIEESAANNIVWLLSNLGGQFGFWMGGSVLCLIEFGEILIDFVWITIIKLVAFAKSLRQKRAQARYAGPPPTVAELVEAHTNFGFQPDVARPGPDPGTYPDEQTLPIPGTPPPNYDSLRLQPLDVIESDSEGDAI

Q: With `Cl.N=C(NCCCCc1ccc(O)cc1)NC(=O)c1nc(Cl)c(N)nc1N` [compound V, 4-(4-hydroxyphenyl)butylamidino-3,5-diamino-6-chloropyrazinecarboxamide hydrochloride] as the compound, how does the “Fold Enhancement Over Amiloride” value (relative to amiloride (Formula I compounds, Tables 1-4)) read?
A: 50.3 fold

Q: With `Cl.Cl.N=C(N)NCCOc1ccc(CCCCNC(=N)NC(=O)c2nc(Cl)c(N)nc2N)cc1` [compound 9518, N-(3,5-diamino-6-chloropyrazine-2-carbonyl)-N′-{4-[4-(2-guanidinoethoxy)-phenyl]butyl}guanidine dihydrochloride] as the compound, how does the “Fold Amiloride*” value (number in brackets not explained) read?
A: 120.6 ± 60.8 (11) fold

Q: Which “Fold Amiloride*” value (number in brackets not explained (presumably n), listed as drawing 52: O CH2 CHOH CH2 OH, hydrochloride) does the source give for `Cl.N=C(NCCCCc1ccc(OCC(O)CO)cc1)NC(=O)c1nc(Cl)c(N)nc1N` (centres unmarked) [compound 33, 4-[4-(2,3-Dihydroxypropyloxyl)phenyl]butylamidino-3,5-diamino-6-chloropyrazinecarboxamide hydrochloride] here?
A: 51.95 (50) fold

Q: And the “Fold Amiloride*” value (number in brackets not explained (presumably n), listed as drawing 53: O CH2 CHOH CH2 OH, hydrochloride)?
A: 51.95 (79) fold

Q: And the “Fold Amiloride*” value (number in brackets not explained, Position=Para, hydrochloride)?
A: 51.55 (79) fold

Source: US7745442B2, “Methods of reducing risk of infection from pathogens” (priority 2003, dated 2010)
